Test system: HEK293 cells
Test: Quantitative immunocolocalization of RBM45 with the nuclear stress body marker HSF1 in stressed HEK293 cells
Assay type: cell-based
Conditions: mitoxantrone treatment as cellular stress, quantitative immunocolocalization analysis
Description: An imaging-based approach combining immunofluorescence microscopy (IF), digital deconvolution (DD), and automated image analysis (IA) is used to examine RBM45 redistribution and colocalization with markers of subnuclear structures in response to heat shock and mitoxantrone (topoisomerase II inhibitor, genotoxic stress).
For immunocytochemistry experiments, HEK293 cells were grown and stained with antibodies, as above. Corresponding images were subjected to digital deconvolution, counting as above, and quantitative immunocolocalization with markers of subnuclear structures.
Digital deconvolution is a mathematical post-processing method that removes out of focus light from wide field fluorescent microscopic images, based on the mathematical modeling of the behavior of light in a given imaging system, called the point spread function (PSF). The effect of deconvolution is similar, in practice, to using a confocal microscope. […] Several deconvolution procedures exist, which vary in complexity/algorithm. […]
During image analysis, counts are based on thresholding of image pixel intensity values and counts are made using particle detection algorithms (vary size/circularity). On example of colocalization analysis is quantitative immunocolocalization analysis as described in Li et al., 2004. […]

O=C1c2c(O)ccc(O)c2C(=O)c2c(NCCNCCO)ccc(NCCNCCO)c21 [mitoxantrone]
colocalization of RBM45 with the nuclear stress body marker HSF1: significant colocalization

Source: US10359436B2, “Nuclear stress response in motor neuron disease and other neurological diseases” (DIGNITY HEALTH, priority 2013, dated 2019)
